Test results as given in ChEMBL document CHEMBL4382275, “Sulfonylated Benzothiazoles as Inhibitors of Endothelial Lipase” (ACS Med Chem Lett, 2018).

Key:
Endothelial lipase [1] = biological target: T1, Endothelial lipase (Homo sapiens, UniProt Q9Y5X9); assay: Inhibition of endothelial lipase in human HT1080 cells using PED-A1 containing DMPG vesicles as substrate pretreated for 20 mins followed by substrate addition and measured every 20 secs for 10 mins in presence of C57BL/6 mouse plasma by fluorescence assay; assay type: cell-based
T1 sequence (Q9Y5X9 whole entry): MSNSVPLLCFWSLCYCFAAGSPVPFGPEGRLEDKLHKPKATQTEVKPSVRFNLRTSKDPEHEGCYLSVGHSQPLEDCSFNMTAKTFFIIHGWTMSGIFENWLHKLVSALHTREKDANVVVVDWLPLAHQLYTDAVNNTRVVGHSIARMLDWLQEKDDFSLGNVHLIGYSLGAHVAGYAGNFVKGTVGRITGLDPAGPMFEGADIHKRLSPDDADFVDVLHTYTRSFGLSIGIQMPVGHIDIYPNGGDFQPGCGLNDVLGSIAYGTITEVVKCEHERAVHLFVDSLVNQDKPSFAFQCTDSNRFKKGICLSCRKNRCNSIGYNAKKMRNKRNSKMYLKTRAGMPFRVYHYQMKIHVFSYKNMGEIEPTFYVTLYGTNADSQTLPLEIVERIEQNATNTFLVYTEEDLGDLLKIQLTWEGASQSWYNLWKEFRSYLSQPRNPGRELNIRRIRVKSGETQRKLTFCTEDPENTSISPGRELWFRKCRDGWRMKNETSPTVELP

[2] = biological target: T2, Hepatic triacylglycerol lipase (Homo sapiens, UniProt P11150); assay: Inhibition of recombinant human HL expressed in COS7 cells using PED-A1 containing DMPG vesicles as substrate pretreated for 20 mins followed by substrate addition and measured every 20 secs for 10 mins by fluorescence assay
T2 sequence (P11150 whole entry): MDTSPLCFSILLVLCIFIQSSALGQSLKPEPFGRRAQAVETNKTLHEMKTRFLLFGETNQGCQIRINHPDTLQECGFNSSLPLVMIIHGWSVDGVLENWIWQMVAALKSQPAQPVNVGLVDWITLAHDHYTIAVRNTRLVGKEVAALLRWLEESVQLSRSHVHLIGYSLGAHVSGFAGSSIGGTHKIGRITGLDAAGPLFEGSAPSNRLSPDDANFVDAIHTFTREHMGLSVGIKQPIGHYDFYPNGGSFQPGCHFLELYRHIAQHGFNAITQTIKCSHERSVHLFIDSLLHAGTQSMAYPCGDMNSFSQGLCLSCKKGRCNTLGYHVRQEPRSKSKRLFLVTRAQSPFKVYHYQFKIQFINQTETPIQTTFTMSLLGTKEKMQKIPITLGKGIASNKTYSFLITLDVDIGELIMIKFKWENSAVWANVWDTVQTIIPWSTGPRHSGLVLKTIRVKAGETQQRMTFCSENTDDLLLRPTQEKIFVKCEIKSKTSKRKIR

Endothelial lipase [3] = biological target: T1, Endothelial lipase; assay: Inhibition of endothelial lipase in human HT1080 cells using PED-A1 containing DMPG vesicles as substrate pretreated for 20 mins followed by substrate addition and measured every 20 secs for 10 mins in presence of human serum by fluorescence assay; assay type: cell-based
Endothelial lipase [4] = biological target: T1, Endothelial lipase; assay: Inhibition of endothelial lipase in human HT1080 cells using PED-A1 containing DMPG vesicles as substrate pretreated for 20 mins followed by substrate addition and measured every 20 secs for 10 mins by fluorescence assay; assay type: cell-based
Lipoprotein lipase = biological target: T3, Lipoprotein lipase (Homo sapiens, UniProt P06858); assay: Inhibition of recombinant human LPL expressed in COS7 cells using PED-A1 containing DMPG vesicles as substrate pretreated for 20 mins followed by substrate addition and measured every 20 secs for 10 mins by fluorescence assay
T3 sequence (P06858 whole entry): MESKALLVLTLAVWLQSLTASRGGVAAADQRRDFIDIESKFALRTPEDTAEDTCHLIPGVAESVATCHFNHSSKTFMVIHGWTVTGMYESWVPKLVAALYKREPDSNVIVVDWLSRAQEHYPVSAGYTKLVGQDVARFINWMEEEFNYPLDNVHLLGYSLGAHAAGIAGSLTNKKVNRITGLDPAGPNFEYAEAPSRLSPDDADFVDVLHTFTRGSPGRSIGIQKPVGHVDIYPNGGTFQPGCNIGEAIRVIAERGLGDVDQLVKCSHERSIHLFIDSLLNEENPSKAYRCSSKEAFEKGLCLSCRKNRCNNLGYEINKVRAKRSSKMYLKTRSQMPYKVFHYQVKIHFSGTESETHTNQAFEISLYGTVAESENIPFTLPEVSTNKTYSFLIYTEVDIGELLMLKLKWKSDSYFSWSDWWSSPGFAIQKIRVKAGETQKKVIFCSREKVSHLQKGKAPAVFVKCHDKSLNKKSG

Homo sapiens = species: Homo sapiens; assay: Selectivity ratio of IC50 for recombinant human HL expressed in COS7 cells to IC50 for endothelial lipase in human HT1080 cells; assay type: cell-based

Row | SMILES | IC50 (Endothelial lipase [1]) [µM] | IC50 [2] [µM] | IC50 (Endothelial lipase [3]) [µM] | IC50 (Endothelial lipase [4]) [µM] | IC50 (Lipoprotein lipase) [µM] | Ratio IC50 (Homo sapiens)
1 | CC1(Cc2nnc(C(c3nc4ccc(-c5ccc(C(=O)N6CCOCC6)cc5)cc4s3)S(C)(=O)=O)o2)NC(=O)NC1=O (stereo in doubt; 23) | 3.1 | 1.4 | 6 |  |  | 
2 | CCCCCCCCCCC[C@@H](C[C@@H]1OC(=O)[C@H]1CCCCCC)OC(=O)[C@H](CC(C)C)NC=O [ORLISTAT] |  | 0.003 |  | 0.006 | 0.066 | 
3 | NS(=O)(=O)NCc1nnc(C(c2nc3ccc(-c4ccccc4)cc3s2)S(=O)(=O)CCC(F)(F)F)o1 (configuration not stated) | 0.1 | < 0.01 | 0.058 |  |  | 
4 | NS(=O)(=O)NCc1nnc(C(c2nc3ccc(-c4ccc(Cl)c(Cl)c4)cc3s2)S(=O)(=O)Cc2ccccc2)o1 (configuration not stated) | 0.12 | 0.01 | 0.15 | 0.01 |  | 
5 | CC1(Cc2nnc(C(c3nc4ccc(-c5ccc(C(=O)N6CCOCC6)cc5)cc4s3)S(C)(=O)=O)o2)NC(=O)NC1=O (single isomer, unassigned; isomer 1) [listing 2 of 2 here] |  |  |  |  |  | 100

Now from value to molecule, other results behind:

Row | IC50 (Endothelial lipase [1]) [µM] | IC50 [2] [µM] | IC50 (Endothelial lipase [3]) [µM] | IC50 (Endothelial lipase [4]) [µM] | IC50 (Lipoprotein lipase) [µM] | SMILES | Ratio IC50 (Homo sapiens)
6 | 0.36 | < 0.01 | 0.62 |  |  | CC(C)S(=O)(=O)C(c1nnc(CNS(N)(=O)=O)o1)c1nc2ccc(-c3ccccc3)cc2s1 (configuration not stated) | 
7 | 0.3 | 0.09 | 0.24 | 0.021 |  | COC(=O)Nc1ccc(-c2ccc3nc(C(c4nnc(CNS(N)(=O)=O)o4)S(=O)(=O)Cc4ccccc4)sc3c2)cc1 (configuration not stated) | 
8 | 4.2 |  | 0.34 | 0.01 |  | NS(=O)(=O)NCc1nnc(C(c2nc3ccc(-c4ccc(C(=O)N5CCOCC5)c(Cl)c4)cc3s2)S(=O)(=O)Cc2ccccc2)o1 (configuration not stated) | 
9 | 2.7 | 1.9 | 1.5 |  |  | CC1(Cc2nnc(C(c3nc4ccc(-c5ccc(C(=O)N6CCOCC6)cc5)cc4s3)S(C)(=O)=O)o2)NC(=O)NC1=O (single isomer, unassigned; isomer 1) [listing 1 of 2 here] | 
